Measured values taken from US4820834A, “Benzodiazepine analogs” (priority 1987, dated 1989).
Like-named read-outs stand apart in the source and are kept apart here.

Key:
CCK receptor (pancreas) = target: T1, CCK receptor (pancreas) (Rattus norvegicus, UniProt P30551); experiment: CCK Receptor Binding (Pancreas): inhibition of ^125 I-CCK-33 binding; set-up: species or system Male Sprague-Dawley rats; conditions: rat pancreas membranes, ^125 I-CCK-33, 37° C., 30 minutes
T1 construct: The whole pancreas was dissected free of fat tissue and was homogenized; from tissue; host or cells: rat pancreas membranes (Sprague-Dawley)
T1 sequence (P30551 1-444): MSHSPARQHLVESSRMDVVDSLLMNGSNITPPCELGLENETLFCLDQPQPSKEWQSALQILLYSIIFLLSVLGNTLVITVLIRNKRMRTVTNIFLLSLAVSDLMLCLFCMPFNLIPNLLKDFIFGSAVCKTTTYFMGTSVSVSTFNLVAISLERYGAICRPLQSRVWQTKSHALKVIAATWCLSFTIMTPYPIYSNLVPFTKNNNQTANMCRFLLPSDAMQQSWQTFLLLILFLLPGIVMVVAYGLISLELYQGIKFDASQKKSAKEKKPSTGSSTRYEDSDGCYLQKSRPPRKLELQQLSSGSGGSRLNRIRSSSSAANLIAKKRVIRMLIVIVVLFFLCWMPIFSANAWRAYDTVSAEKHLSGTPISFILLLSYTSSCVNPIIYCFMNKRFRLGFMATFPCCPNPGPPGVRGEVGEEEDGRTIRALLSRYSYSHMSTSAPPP
Procedure, shortened: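 Bound ^125I-CCK-33 was counted in pellets after a 30 min, 37° C incubation followed by centrifugation. Membranes came from male Sprague-Dawley rat pancreas, assayed in Tris HCl pH 7.7 containing DTT, bacitracin, PMSF and o-phenanthroline. For Scatchard analysis, tracer was diluted with rising unlabelled CCK-33.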

[1] = target: T2, Gastrin receptor (gastric glands) (Cavia porcellus, UniProt H0VZC5); experiment: Gastrin Receptor Binding in Guinea Pig Gastric Glands; set-up: species or system guinea pig (male Hartley); conditions: 25° C., 30 minutes
T2 construct: The washed guinea pig gastric glands prepared as above were resuspended; from tissue; host or cells: guinea pig gastric mucosal glands (male Hartley)
T2 sequence (H0VZC5 1-426): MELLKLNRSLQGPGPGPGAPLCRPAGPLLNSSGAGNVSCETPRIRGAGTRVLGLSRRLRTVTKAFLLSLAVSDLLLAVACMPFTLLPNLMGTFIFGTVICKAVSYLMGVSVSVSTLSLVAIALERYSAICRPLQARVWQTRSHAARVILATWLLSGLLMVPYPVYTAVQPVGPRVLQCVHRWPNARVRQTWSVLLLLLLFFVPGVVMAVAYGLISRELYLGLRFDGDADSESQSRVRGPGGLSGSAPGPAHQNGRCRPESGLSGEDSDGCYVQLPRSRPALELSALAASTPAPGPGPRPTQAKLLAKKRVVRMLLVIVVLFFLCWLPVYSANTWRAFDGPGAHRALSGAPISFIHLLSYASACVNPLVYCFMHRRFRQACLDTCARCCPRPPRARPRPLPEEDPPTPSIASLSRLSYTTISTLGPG

[2] = target: T3, CCK receptor (brain, cerebral cortex) (Cavia porcellus, UniProt H0VZC5); experiment: biochemical; type: binding, Male Hartley guinea pigs; conditions: guinea pig cerebral cortex, ^125 I-CCK-33, 25° C., 2 hours
T3 construct: Cerebral cortex was dissected and used as a receptor source; from tissue; host or cells: guinea pig cerebral cortex membranes (male Hartley)
T3 sequence (H0VZC5 1-426): T2 sequence (H0VZC5 1-426)
Procedure, shortened: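 Binding of [radiolabeled] CCK-33 measured by gamma counting of centrifuged pellets after 2 h at 25°C. Membranes came from guinea pig brain cortex, suspended in 10 mM HEPES, 5 mM MgCl2, 1 mM EGTA, 0.25 mg/ml bacitracin, 0.4% BSA.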

[3] = ^125 I-gastrin, read-out: IC50 ^125 I-Gastrin Gastric Glands
[4] = read-out: IC50 ^125 I-CCK Pancreas
[5] = read-out: IC50 ^125 I-CCK Brain

CN1C(=O)[C@@H](NC(=O)c2ccc(Br)cc2)N=C(c2ccccc2F)c2ccccc21 [Example 156, 3(S)-(+)-3-(4-Bromobenzoylamino)-1,3-dihydro-5-(2-fluorophenyl)-1-methyl-2H-1,4-benzodiazepin-2-one]
IC50 (CCK receptor (pancreas); IC50 ^125 I-CCK Pancreas): 3.5 nM
IC50 [1, 3]: 680 nM
IC50 ([2]; IC50 ^125 I-CCK Brain): 4000 nM

CN1C(=O)[C@H](NC(=O)c2cccc(I)c2)N=C(c2ccccc2F)c2ccccc21 [Example 168, 3(R)-(-)-1,3-Dihydro-5-(2-fluorophenyl)-3-(3-iodobenzoylamino)-1-methyl-2H-1,4-benzodiazepin-2-one]
IC50 (CCK receptor (pancreas); [4]): 15 nM
IC50 [1, 3]: 2000 nM
IC50 [2, 5]: 2400 nM

Cc1ccc(S(=O)(=O)NC(=O)NC2N=C(c3ccccc3)c3ccccc3N(C)C2=O)cc1 (stereo not drawn) [Example 248, N-(((2,3-Dihydro-1-methyl-2-oxo-5-phenyl-1H-1,4-benzodiazepin-3-yl)amino)carbonyl)-4-methylbenzenesulfonamide]
IC50 (CCK receptor (pancreas); IC50 ^125 I-CCK Pancreas): 20000 nM
IC50 [1, 3]: 2200 nM
IC50 [2, 5]: 5300 nM

O=C(NC1N=C(c2ccccc2)c2ccccc2NC1=O)C1Cc2ccccc2N1 (stereo not drawn) [Example 133, 1,3-Dihydro-3-(RS)-(2-indolinecarbonylamino)-5-phenyl-2-H-1,4-benzodiazepin-2-one]
IC50 (CCK receptor (pancreas); [4]): 900 nM
IC50 ([1]; IC50 ^125 I-Gastrin Gastric Glands): 110000 nM
IC50 ([2]; IC50 ^125 I-CCK Brain): > 40000 nM

CN1C(=O)C(C(O)c2cn(C)c3ccccc23)N=C(c2ccccc2)c2ccccc21 (racemic) [Example 50a, 1,3-Dihydro-3(RS)-[1-hydroxy-1-[3-(1-methylindolyl)]]-methyl-1-methyl-5-phenyl-2H-1,4-benzodiazepin-2-one]
IC50 (CCK receptor (pancreas); IC50 ^125 I-CCK Pancreas): 15000 nM
IC50 [1, 3]: 1200 nM
IC50 [2, 5]: 2600 nM

CN1CCN(C(=O)CN2C(=O)C(NC(=O)Nc3ccc(Cl)cc3)N=C(c3ccccc3)c3ccccc32)CC1 (stereo not drawn) [Example 237, 1-((3-((((4-Chlorophenyl)amino)carbonyl)amino)-2,3-dihydro-2-oxo-5-phenyl-1H-1,4-benzodiazepin-1-yl)acetyl)-4-methylpiperazine]
IC50 (CCK receptor (pancreas); [4]): 1200 nM
IC50 [1, 3]: 2.6 nM
IC50 [2, 5]: 8 nM

O=C1Nc2ccc(Cl)cc2C(c2ccccc2)=N[C@@H]1Cc1cn(-c2ccc([N+](=O)[O-])cc2[N+](=O)[O-])cn1 [Example 55, 7-Chloro-1,3-dihydro-3(R)-[(3'-(2,4-dinitrophenyl)imidazol-5'-yl)-methyl]-5-phenyl-2H-1,4-benzodiazepin-2-one]
IC50 (CCK receptor (pancreas); IC50 ^125 I-CCK Pancreas): 7600 nM
IC50 [1, 3]: 76000 nM
IC50 [2, 5]: 38600 nM

CN1C(=O)C(C(=O)c2ccsc2)N=C(c2ccccc2)c2ccccc21 (racemic) [Example 48, 1,3-Dihydro-1-methyl-5-phenyl-3-(RS)-(3-thienoyl)-2H-1,4-benzodiazepin-2-one]
IC50 (CCK receptor (pancreas); IC50 ^125 I-CCK Pancreas): 54000 nM
IC50 [1, 3]: 8400 nM
IC50 [2, 5]: 33000 nM
